ChEMBL document CHEMBL1123179, “4-Amino-2-(substituted methyl)-2-butenoic acids: substrates and potent inhibitors of gamma-aminobutyric acid aminotransferase” (J Med Chem, 1986)

These molecules were tested against 4-aminobutyrate aminotransferase, mitochondrial (Sus scrofa, UniProt P80147) (assay: Compound was tested for the inhibitory effect against Gamma-amino-N-butyrate transaminase from pig brain).
Chain of 4-aminobutyrate aminotransferase, mitochondrial (P80147 whole entry): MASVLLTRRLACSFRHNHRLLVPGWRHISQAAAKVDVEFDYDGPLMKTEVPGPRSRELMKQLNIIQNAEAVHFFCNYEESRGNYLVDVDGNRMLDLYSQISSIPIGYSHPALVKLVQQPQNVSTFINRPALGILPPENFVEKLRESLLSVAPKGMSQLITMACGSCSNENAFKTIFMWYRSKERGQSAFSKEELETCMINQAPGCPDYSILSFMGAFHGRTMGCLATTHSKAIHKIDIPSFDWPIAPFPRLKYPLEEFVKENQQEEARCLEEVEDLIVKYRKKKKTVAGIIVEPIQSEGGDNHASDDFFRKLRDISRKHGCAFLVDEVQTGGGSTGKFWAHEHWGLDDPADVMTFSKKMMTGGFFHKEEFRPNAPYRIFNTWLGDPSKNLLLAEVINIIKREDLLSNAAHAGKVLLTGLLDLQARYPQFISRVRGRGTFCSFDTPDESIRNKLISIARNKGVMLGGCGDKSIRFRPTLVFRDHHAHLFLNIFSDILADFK

SMILES | Ki [µM]
NC/C=C(\CO)C(=O)O | 5
NC/C=C(\CF)C(=O)O | 19
NC/C=C(\CCl)C(=O)O | 24
